Test results: patent US20250282776A1, “Bicyclic TLR7 Agonists and Uses Thereof” (Bristol-Myers Squibb Company, priority 2024, published 2025)
pEC50: −log10 of the molar value.

How the values were obtained:
human TLR7 (hTLR7) = biological target: T1, human TLR7 (hTLR7) (Homo sapiens, UniProt Q9NYK1); assay: Human TLR7 agonist activity assay (HEK-Blue TLR7 SEAP reporter); assay type: cell-based; settings: HEK-Blue TLR7 cells, 18 h incubation, Quanti-Blue, OD 620 nm, some values average of multiple measurements
T1 construct: host or cells: HEK-Blue TLR7 cells (engineered human embryonic kidney cells)
T1 sequence (Q9NYK1 27-1049): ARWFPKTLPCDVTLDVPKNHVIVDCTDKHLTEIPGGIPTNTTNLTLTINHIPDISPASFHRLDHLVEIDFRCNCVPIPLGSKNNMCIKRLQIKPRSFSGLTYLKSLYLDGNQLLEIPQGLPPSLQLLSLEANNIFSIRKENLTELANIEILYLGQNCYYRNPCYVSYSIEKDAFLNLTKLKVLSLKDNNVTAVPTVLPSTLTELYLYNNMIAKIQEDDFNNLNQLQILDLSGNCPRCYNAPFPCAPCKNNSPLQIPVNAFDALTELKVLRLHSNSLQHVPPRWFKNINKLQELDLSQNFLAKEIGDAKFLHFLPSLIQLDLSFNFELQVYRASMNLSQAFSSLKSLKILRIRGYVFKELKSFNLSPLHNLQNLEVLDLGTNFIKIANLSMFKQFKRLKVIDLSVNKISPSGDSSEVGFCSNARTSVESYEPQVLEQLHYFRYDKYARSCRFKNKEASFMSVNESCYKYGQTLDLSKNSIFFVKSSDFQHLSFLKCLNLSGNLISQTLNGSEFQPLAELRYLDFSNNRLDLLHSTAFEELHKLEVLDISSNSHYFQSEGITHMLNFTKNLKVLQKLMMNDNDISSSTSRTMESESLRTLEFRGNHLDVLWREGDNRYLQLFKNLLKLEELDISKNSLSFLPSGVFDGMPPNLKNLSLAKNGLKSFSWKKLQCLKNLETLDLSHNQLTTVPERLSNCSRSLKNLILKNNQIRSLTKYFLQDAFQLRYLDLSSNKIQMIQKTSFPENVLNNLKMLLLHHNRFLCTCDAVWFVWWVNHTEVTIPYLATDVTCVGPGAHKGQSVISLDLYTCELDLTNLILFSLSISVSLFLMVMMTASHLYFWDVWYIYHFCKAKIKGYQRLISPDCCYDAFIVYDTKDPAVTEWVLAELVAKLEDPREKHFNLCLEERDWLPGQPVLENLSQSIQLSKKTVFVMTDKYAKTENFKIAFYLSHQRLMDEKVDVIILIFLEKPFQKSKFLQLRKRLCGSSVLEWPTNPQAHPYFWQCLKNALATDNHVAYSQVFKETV
Method: (§1) This procedure describes a method for assaying human TLR7 (hTLR7) and human TLR8 (hTLR8) agonist activity of the compounds disclosed herein.
(§2) HEK-Blue™ TLR7 cells were added to each well of a 384-well tissue-culture plate (15,000 cells per well) and incubated 16-18 h at 37° C., 5% CO2. Compounds (100 nL) were dispensed into wells containing the HEK-Blue™ TLR cells and the treated cells were incubated at 37° C., 5% CO2. After 18 h, ten microliters 5 of freshly prepared Quanti-Blue™ reagent (Invivogen) was added to each well and incubated for 30 min (37° C., […]). SLAP levels were measured using an Envision plate reader (OD=620 nm). The half maximal effective concentration values (ECSO; compound concentration which induced a response halfway between the assay baseline and maximum) were calculated. Some of the reported activities were the average of multiple measurements.

human TLR8 (hTLR8) = biological target: T2, human TLR8 (hTLR8) (Homo sapiens, UniProt Q9NR97); assay: Human TLR8 agonist activity assay (measured in a similar manner); assay type: cell-based; settings: HEK-Blue TLR cells, SEAP reporter, measured in a similar manner to TLR7; some values average of multiple measurements
T2 construct: expressed in transfected cells
T2 sequence (Q9NR97 27-1041): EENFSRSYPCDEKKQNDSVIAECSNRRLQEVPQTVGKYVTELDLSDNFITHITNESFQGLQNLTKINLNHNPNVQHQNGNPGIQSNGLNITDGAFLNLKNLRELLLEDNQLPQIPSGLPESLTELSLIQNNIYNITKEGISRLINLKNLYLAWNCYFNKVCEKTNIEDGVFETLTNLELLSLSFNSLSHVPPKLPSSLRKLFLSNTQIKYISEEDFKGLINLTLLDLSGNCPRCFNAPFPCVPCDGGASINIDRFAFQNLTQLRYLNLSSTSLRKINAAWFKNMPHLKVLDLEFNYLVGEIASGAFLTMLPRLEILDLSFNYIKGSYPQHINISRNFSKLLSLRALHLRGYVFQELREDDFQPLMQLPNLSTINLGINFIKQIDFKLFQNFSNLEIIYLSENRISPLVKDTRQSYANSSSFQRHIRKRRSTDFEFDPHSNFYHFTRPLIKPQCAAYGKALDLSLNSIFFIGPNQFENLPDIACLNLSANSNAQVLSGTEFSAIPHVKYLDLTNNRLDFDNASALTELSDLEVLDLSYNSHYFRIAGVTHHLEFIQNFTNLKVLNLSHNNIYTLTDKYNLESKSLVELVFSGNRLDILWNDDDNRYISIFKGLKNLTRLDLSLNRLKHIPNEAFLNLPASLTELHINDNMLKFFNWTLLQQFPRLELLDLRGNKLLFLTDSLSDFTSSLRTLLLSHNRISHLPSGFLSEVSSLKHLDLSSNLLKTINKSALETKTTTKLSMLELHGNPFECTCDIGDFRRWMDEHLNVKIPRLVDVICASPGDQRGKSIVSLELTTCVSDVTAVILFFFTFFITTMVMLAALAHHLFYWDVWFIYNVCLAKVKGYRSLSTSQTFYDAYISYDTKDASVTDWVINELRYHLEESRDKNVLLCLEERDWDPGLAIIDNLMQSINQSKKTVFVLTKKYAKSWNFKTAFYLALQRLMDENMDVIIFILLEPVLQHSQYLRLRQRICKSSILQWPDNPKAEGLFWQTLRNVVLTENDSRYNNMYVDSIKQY
Method: as §1
as §2, with “The half maximal effective concentration values (ECSO; compound concentration which induced a response halfway between the assay baseline and maximum) were calculated.” left out
TLR8 activity was measured in a similar manner.

SMILES	pEC50 (human TLR7 (hTLR7))	pEC50 (human TLR8 (hTLR8))
CCCCN(CCO)c1nc(N)nc2cn(Cc3c(F)cc(C4CCC(N(C)C5CC6(COC6)C5)CC4)cc3OC)nc12 (stereo not shown) [Compound 195]	6.27	5.76
CCCCN(CCO)c1nc(N)nc2cn(Cc3ccc(CNC4CCOCC4)c4ncsc34)nc12 [Compound 210]	–	5.73
CCCCN(CCO)c1nc(N)nc2cn(Cc3ccc(CNCCOC)cc3OC)nc12 [Compound 10]	5.88	5.84
CCCCN(CCO)c1nc(N)nc2cn(Cc3c(F)cc(N4CCC(N[C@@H]5CCOC5)CC4)cc3F)nc12 [Compound 96]	6.27	5.70
CCCCN(CCO)c1nc(N)nc2cn(Cc3c(F)cc(N4CCC(N[C@@H]5CCCOC5)CC4)cc3F)nc12 [Compound 132]	6.41	5.73
CCCCN(CCO)c1nc(N)nc2cn(Cc3ccc(CNC4CCC4)cc3NC)nc12 [Compound 102]	5.66	5.74
CCCCN(CCO)c1nc(N)nc2cn(Cc3ccc(CNC4CCC4)cc3OC)nc12 [Compound 1]	5.89	5.94
CCCCN(CCO)c1nc(N)nc2cn(Cc3ccc(CNC4CCCOC4)c4scnc34)nc12 (stereo not shown) [Compound 202]	6.21	6.14
CCCCN(CCO)c1nc(N)nc2cn(Cc3ccc(CN4C[C@H]5COC[C@H]5C4)cc3OC)nc12 [Compound 11]	6.14	6.14
CCCCN(CCO)c1nc(N)nc2cn(Cc3ccc(CNC(C)(C)C)cc3OC)nc12 [Compound 7]	6.01	6.22
CCCCN(CCO)c1nc(N)nc2cn(Cc3ccc(CN[C@@H]4CCCN(C(=O)CN)C4)c4cccnc34)nc12 [Compound 198]	5.88	5.64
CCCCN(CCO)c1nc(N)nc2cn(Cc3c(F)cc(C4=CCC(NC5CCOCC5)CC4)cc3OC)nc12 (stereo not shown) [Compound 190]	6.25	5.77
CCCCN(CCO)c1nc(N)nc2cn(Cc3ccc(CNCC4CC5(CCC5)C4)c4cccnc34)nc12 [Compound 67]	–	5.67
CCCCN(CCO)c1nc(N)nc2cn(Cc3ncc(CNC(C)(C)C)cc3OC)nc12 [Compound 201]	5.87	5.50
CCCCN(CCO)c1nc(N)nc2cn(Cc3ccc(CNCCCCO)c4cccnc34)nc12 [Compound 59]	5.81	5.94
CCCCN(CCO)c1nc(N)nc2cn(Cc3cc(OC)c(C4CCN(C5CCOCC5)CC4)cc3OC)nc12 [Compound 108]	5.94	5.73
CCCCNCc1ccc(Cn2cc3nc(N)nc(N(CCO)CCCC)c3n2)c(C(F)F)c1 [Compound 127]	5.74	5.62
CCCCN(CCO)c1nc(N)nc2cn(Cc3ccc(CNC4CCOC4)cc3OC)nc12 (stereo not shown) [Compound 25]	6.37	6.44
CCCCN(CCO)c1nc(N)nc2cn(Cc3c(F)cc(CN[C@@H]4COC[C@@H]4O)cc3OC)nc12 [Compound 95]	5.91	5.60

SMILES	pEC50 (human TLR7 (hTLR7))	pEC50 (human TLR8 (hTLR8))
CCCCN(CCO)c1nc(N)nc2cn(Cc3c(F)cc(C4CCN(CCO)CC4)cc3OC)nc12 [Compound 35]	6.26	5.73
CCCCN(CCO)c1nc(N)nc2cn(Cc3c(F)cc(C4=CCC(NCCOC)CC4)cc3OC)nc12 (stereo not shown) [Compound 193]	6.48	5.97
CCCCN(CCO)c1nc(N)nc2cn(Cc3ccc(CNCCOC)c4nccnc34)nc12 [Compound 208]	5.72	5.90
CCCCN(CCO)c1nc(N)nc2c(C)n(Cc3ccc(CNC4CCOCC4)cc3OC)nc12 [Compound 212, 2-((5-Amino-2-(2-methoxy-4-(((tetrahydro-2H-pyran-4-yl)amino)methyl)benzyl)-3-methyl-2H-pyrazolo[4,3-d]pyrimidin-7-yl) (butyl)amino) ethan-1-ol]	6.83	6.95
CCCCN(CCO)c1nc(N)nc2cn(Cc3c(F)cc(N4CCC(NC(C)C)CC4)cc3OC)nc12 [Compound 152]	6.13	5.74
CCCCN(CCO)c1nc(N)nc2cn(Cc3c(F)cc(C4CCN(CCS(C)(=O)=O)CC4)cc3OC)nc12 [Compound 42]	7.00	6.30
CCCCN(CCO)c1nc(N)nc2cn(Cc3ccc(CNC4(COC)CCOCC4)cc3OC)nc12 [Compound 165]	–	6.34
CCCCN(CCO)c1nc(N)nc2cn(Cc3ccc(CNC4CC5(COC5)C4)cc3)nc12 [Compound 159]	–	5.92
CCCN(CCO)c1nc(N)nc2cn(Cc3ccc(CNC4CCC4)cc3OC)nc12 [Compound 43]	–	5.76
CCCCN(CCO)c1nc(N)nc2cn(Cc3ccc(CNCCO)cc3)nc12 [Compound 160]	–	5.70
CCC[C@@H](CO)N(C)c1nc(N)nc2cn(Cc3ccc(CN4CCCC4)cc3OC)nc12 [Compound 87]	–	5.74
CCCCN(CCO)c1nc(N)nc2cn(Cc3ccc(CNC4CCOC(C)(C)C4)c4cn[nH]c34)nc12 (stereo not shown) [Compound 209]	–	5.55
CCCCN(CCO)c1nc(N)nc2cn(Cc3ccc(CNC4(C)CCC4)cc3C(F)F)nc12 [Compound 167]	–	5.79
CCCCN(CCO)c1nc(N)nc2cn(Cc3ccc(CNC4CCOCC4)c4cn[nH]c34)nc12 [Compound 204]	–	5.90
CCCCN(CCO)c1nc(N)nc2cn(Cc3ccc(CNCCO)cc3C(F)F)nc12 [Compound 129]	–	5.57
CCCCN(CCO)c1nc(N)nc2cn(Cc3ccc(CNC4CCC(F)(F)CC4)c4scnc34)nc12 [Compound 203]	–	5.62
CCCCN(CCO)c1nc(N)nc2cn(Cc3ccc(CNC4CCOC(C)C4)cc3OC)nc12 (stereo not shown) [Compound 126]	–	6.16
CCCCN(CCO)c1nc(N)nc2cn(Cc3cnc(CN[C@H]4C[C@H](OC)C4)cc3OC)nc12 [Compound 124]	–	5.73
CCCCN(CCO)c1nc(N)nc2cn(Cc3ccc(CN[C@H]4CCOC4)c4nccnc34)nc12 [Compound 205]	–	5.87
